The source of these data is patent publication US8334382B2, “Substituted biaryl piperazinyl-pyridine analogues” (Neurogen Corporation, priority 2004, dated 2012).

The test concerns the target T1, human capsaicin receptor (Homo sapiens, UniProt Q8NER1).
T1 construct: expressed in transfected cells; host or cells: HEK293, stably transfected with pBK-CMV construct
Description: Calcium mobilization assay, determination of antagonist activity. Particulars: capsaicin at EC50; cells expressing human capsaicin receptor; Example 6. It is filed as cell-based. In a few lines: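 IC50 is the antagonist level giving a 50% drop in the capsaicin (EC50) calcium signal, read by FLIPR in Fluo-3 AM-loaded stable HEK293 lines bearing full-length human receptor. Compounds at 1-5 µM final were preincubated 0.5-6 h, room temperature, dark, in KRH pH 7.4.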

Molecules are shown by their SMILES.

T1 sequence (Q8NER1 whole entry): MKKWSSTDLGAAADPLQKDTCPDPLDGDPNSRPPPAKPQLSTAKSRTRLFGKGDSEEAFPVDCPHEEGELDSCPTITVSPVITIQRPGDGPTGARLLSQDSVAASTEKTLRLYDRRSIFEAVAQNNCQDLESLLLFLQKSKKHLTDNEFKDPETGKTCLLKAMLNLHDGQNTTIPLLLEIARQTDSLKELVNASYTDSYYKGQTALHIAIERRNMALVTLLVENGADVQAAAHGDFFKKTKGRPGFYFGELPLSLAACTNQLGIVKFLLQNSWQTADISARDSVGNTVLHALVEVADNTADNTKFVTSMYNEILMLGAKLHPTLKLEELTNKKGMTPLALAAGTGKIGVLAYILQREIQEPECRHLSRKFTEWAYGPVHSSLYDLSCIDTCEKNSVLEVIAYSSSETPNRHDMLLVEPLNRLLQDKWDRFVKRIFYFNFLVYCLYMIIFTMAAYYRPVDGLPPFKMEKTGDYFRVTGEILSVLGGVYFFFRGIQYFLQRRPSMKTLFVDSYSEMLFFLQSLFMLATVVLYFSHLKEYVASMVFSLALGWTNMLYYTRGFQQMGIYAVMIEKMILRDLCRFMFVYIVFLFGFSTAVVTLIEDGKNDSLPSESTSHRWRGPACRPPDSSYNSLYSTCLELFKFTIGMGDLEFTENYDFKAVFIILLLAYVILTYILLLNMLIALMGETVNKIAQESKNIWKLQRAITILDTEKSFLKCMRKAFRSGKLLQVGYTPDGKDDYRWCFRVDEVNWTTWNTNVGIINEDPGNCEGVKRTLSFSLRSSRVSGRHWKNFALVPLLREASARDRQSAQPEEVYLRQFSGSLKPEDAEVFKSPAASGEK

Broadly, the IC50 is the point on the concentration scale where inhibition reaches its midpoint. For the compound `Cc1cc(C(=O)N2CCC(c3ccccc3)CC2)cnc1N1CCN(c2cc(-c3ccc(F)cc3)nc(N3CCCC3C)n2)CC1` (centres unmarked) [Example 130, 4-(4-fluorophenyl)-6-(4-{3-methyl-5-[(4-phenylpiperidin-1-yl)carbonyl]pyridin-2-yl}piperazin-1-yl)-2-(2-methylpyrrolidin-1-yl)pyrimidine], the IC50 was not above 1 µM.
For the compound `Cc1cc(C(=O)N2CCN(C)CC2)cnc1N1CCN(c2cc(-c3ccc(F)cc3)nc(N3CCCC3C)n2)CC1` (centres unmarked) [Example 131, 4-(4-fluorophenyl)-6-(4-{3-methyl-5-[(4-methylpiperazin-1-yl)carbonyl]pyridin-2-yl}piperazin-1-yl)-2-(2-methylpyrrolidin-1-yl)pyrimidine], the 50% inhibitory concentration (IC50) is not above 1 µM.
As for `COCCN1CCN(C(=O)c2cnc(N3CCN(c4cc(-c5ccc(F)cc5)nc(N5CCCC5C)n4)CC3)c(C)c2)CC1` (centres unmarked) [Example 132, 4-(4-fluorophenyl)-6-[4-(5-{[4-(2-methoxyethyl)piperazin-1-yl]carbonyl}-3-methylpyridin-2-yl)piperazin-1-yl]-2-(2-methylpyrrolidin-1-yl)pyrimidine], the IC50 was not above 1 µM.
Consider `Cc1cc(C(=O)N2CCN(C3CCCC3)CC2)cnc1N1CCN(c2cc(-c3ccc(F)cc3)nc(N3CCCC3C)n2)CC1` (centres unmarked) [Example 133, 4-(4-{5-[(4-cyclopentylpiperazin-1-yl)carbonyl]-3-methylpyridin-2-yl}piperazin-1-yl)-6-(4-fluorophenyl)-2-(2-methylpyrrolidin-1-yl)pyrimidine], for which the half-maximal inhibitory concentration (IC50) is not above 1 µM.
In the case of `CC(=O)N1CCN(C(=O)c2cnc(N3CCN(c4cc(-c5ccc(F)cc5)nc(N5CCCC5C)n4)CC3)c(C)c2)CC1` (centres unmarked) [Example 134, 4-(4-{5-[(4-acetylpiperazin-1-yl)carbonyl]-3-methylpyridin-2-yl}piperazin-1-yl)-6-(4-fluorophenyl)-2-(2-methylpyrrolidin-1-yl)pyrimidine] it was not above 1 µM; in that of `Cc1cc(C(=O)N2CCCC2C)cnc1N1CCN(c2cc(-c3ccc(F)cc3)nc(N3CCCC3C)n2)CC1` (centres unmarked) [Example 135, 4-(4-fluorophenyl)-6-(4-{3-methyl-5-[(2-methylpyrrolidin-1-yl)carbonyl]pyridin-2-yl}piperazin-1-yl)-2-(2-methylpyrrolidin-1-yl)pyrimidine], not above 1 µM.
Turning to `Cc1cc(C(=O)N(C)CCN(C)C)cnc1N1CCN(c2cc(-c3ccc(F)cc3)nc(N3CCCC3C)n2)CC1` (centres unmarked) [Example 136, N-[2-(dimethylamino)ethyl]-6-{4-[6-(4-fluorophenyl)-2-(2-methylpyrrolidin-1-yl)pyrimidin-4-yl]piperazin-1-yl}-N,5-dimethylnicotinamide], the IC50 was not above 1 µM.
In the case of `Cc1cc(C(=O)N(C)CCCN(C)C)cnc1N1CCN(c2cc(-c3ccc(F)cc3)nc(N3CCCC3C)n2)CC1` (centres unmarked) [Example 137, N-[3-(dimethylamino)propyl]-6-{4-[6-(4-fluorophenyl)-2-(2-methylpyrrolidin-1-yl)pyrimidin-4-yl]piperazin-1-yl}-N,5-dimethylnicotinamide] it was not above 1 µM.
With `Cc1cc(C(=O)N(C)C2CCN(C)C2)cnc1N1CCN(c2cc(-c3ccc(F)cc3)nc(N3CCCC3C)n2)CC1` (centres unmarked) [Example 138, 6-{4-[6-(4-fluorophenyl)-2-(2-methylpyrrolidin-1-yl)pyrimidin-4-yl]piperazin-1-yl}-N,5-dimethyl-N-(1-methylpyrrolidin-3-yl)nicotinamide], the IC50 was not above 1 µM.
On to `Cc1cc(C(=O)N2CCC(N(C)C)C2)cnc1N1CCN(c2cc(-c3ccc(F)cc3)nc(N3CCCC3C)n2)CC1` (stereo not drawn) [Example 139, l-[(6-{4-[6-(4-fluorophenyl)-2-(2-methylpyrrolidin-1-yl)pyrimidin-4-yl]piperazin-1-yl}-5-methylpyridin-3-yl)carbonyl]-N,N-dimethylpyrrolidin-3 amine], for which the half-maximal inhibitory concentration (IC50) is not above 1 µM.
On to `CC(=O)NC1CCN(C(=O)c2cnc(N3CCN(c4cc(-c5ccc(F)cc5)nc(N5CCCC5C)n4)CC3)c(C)c2)C1` (stereo not drawn) [Example 140, N-{l-[(6-{4-[6-(4-fluorophenyl)-2-(2-methylpyrrolidin-1-yl)pyrimidin-4-yl]piperazin-1-yl}-5-methylpyridin-3-yl)carbonyl]pyrrolidin-3-yl}acetamide], for which the half-maximal inhibitory concentration (IC50) was not above 1 µM.
Turning to `COC1CCN(C(=O)c2cnc(N3CCN(c4cc(-c5ccc(F)cc5)nc(N5CCCC5C)n4)CC3)c(C)c2)CC1` (centres unmarked) [Example 141, 4-(4-fluorophenyl)-6-(4-{5-[(4-methoxypiperidin-1-yl)carbonyl]-3-methylpyridin-2-yl}piperazin-1-yl)-2-(2-methylpyrrolidin-1-yl)pyrimidine], the half-inhibitory concentration (IC50) is not above 1 µM.
In the case of `Cc1cc(C(=O)N2CCC(F)(F)CC2)cnc1N1CCN(c2cc(-c3ccc(F)cc3)nc(N3CCCC3C)n2)CC1` (centres unmarked) [Example 142, 4-(4-{5-[(4,4-difluoropiperidin-1-yl)carbonyl]-3-methylpyridin-2-yl}piperazin-1-yl)-6-(4-fluorophenyl)-2-(2-methylpyrrolidin-1-yl)pyrimidine], the IC50 is not above 1 µM.
Take `C[C@@H]1CN(c2ncc(C(N)=O)cc2Cl)CCN1c1cc(-c2ccc(F)cc2)nc(N2CCOC[C@H]2C)n1` [Example 143, 5-Chloro-6-{4-[6-(4-fluoro-phenyl)-2-(3-(R)-methyl-morpholin-4-yl)-pyrimidin-4-yl]-3-(R)-methyl-piperazin-1-yl}-nicotinamide]: the IC50 is not above 1 µM.
`Cc1ccc(C(=O)O)nc1N1CCN(c2cc(-c3ccc(F)cc3)nc(N3CCC[C@H]3C)n2)[C@H](C)C1` [Example 144, 6-{4-[6-(4-Fluoro-phenyl)-2-(2-(R)-methyl-pyrrolidin-l-yl)-pyrimidin-4-yl]-3-(R)-methyl-piperazin-1-yl}-5-methyl-pyridine-2-carboxylic acid]: the IC50 is not above 1 µM.
The same measure for `Cc1ccc(C(N)=O)nc1N1CCN(c2cc(-c3ccc(F)cc3)nc(N3CCC[C@H]3C)n2)[C@H](C)C1` [Example 145, 6-{4-[6-(4-Fluoro-phenyl)-2-(2-(R)-methyl-pyrrolidin-1-yl)-pyrimidin-4-yl]-3-(R)-methyl-piperazin-1-yl}-5-methyl-pyridine-2-carboxylic acid amide]: not above 1 µM; for `C[C@@H]1CN(c2ncc(CO)cc2Cl)CCN1c1cc(-c2ccc(F)c(Cl)c2)nc(N2CCC[C@H]2C)n1` [Example 146, (5-Chloro-6-{4-[6-(3-chloro-4-fluoro-phenyl)-2-(2-(R)-methyl-pyrrolidin-1-yl)-pyrimidin-4-yl]-3-(R)-methyl-piperazin-1-yl}-pyridin-3-yl)-methanol]: not above 1 µM.
The same measure for `CC1CCCN1c1nc(-c2ccc(F)cc2)cc(N2CCN(c3ncc(C(C)(C)O)cc3Cl)CC2)n1` (centres unmarked) [Example 147, 2-(5-Chloro-6-{4-[6-(4-fluoro-phenyl)-2-(2-methyl-pyrrolidin-1-yl)-pyrimidin-4-yl]-piperazin-1-yl}-pyridin-3-yl)-propan-2-ol]: not above 1 µM; for `CC(O)c1cnc(N2CCN(c3cc(-c4ccc(F)cc4)nc(N4CCCC4C)n3)CC2)c(Cl)c1` (stereo not drawn) [Example 148, l-(5-Chloro-6-{4-[6-(4-fluoro-phenyl)-2-(2-methyl-pyrrolidin-1-yl)-pyrimidin-4-yl]-piperazin-1-yl}-pyridin-3-yl)-ethanol]: not above 1 µM; for `C[C@@H]1CN(c2ncc(C(=O)NCCO)cc2Cl)CCN1c1cc(-c2ccc(F)c(Cl)c2)nc(N2CCC[C@H]2C)n1` [Example 149, 5-Chloro-6-{4-[6-(3-chloro-4-fluoro-phenyl)-2-(2-(R)-methyl-pyrrolidin-1-yl)-pyrimidin-4-yl]-3-(R)-methyl-piperazin-1-yl}-N-(2-hydroxy-ethyl)-nicotinamide]: not above 1 µM.
For `Cc1cc(C(=O)O)cnc1N1CCN(c2cc(-c3ccc(F)cc3)nc(N3CCOC[C@H]3C)n2)[C@H](C)C1` [Example 150, 6-{4-[6-(4-Fluoro-phenyl)-2-(3-(R)-methyl-morpholin-4-yl)-pyrimidin-4-yl]-3-(R)-methyl-piperazin-1-yl}-5-methyl-nicotinic acid], the IC50 is not above 1 µM.
The same measure for `Cc1cc(C(=O)O)cnc1N1CCN(c2cc(-c3ccc(F)cc3)nc(N3CCC[C@H]3CO)n2)[C@H](C)C1` [Example 151, 6-{4-[6-(4-Fluoro-phenyl)-2-(2-(S)-hydroxymethyl-pyrrolidin-l-yl)-pyrimidin-4-yl]-3-(R)-methyl-piperazin-1-yl}-5-methyl-nicotinic acid]: not above 1 µM.
With `CC1CCCN1c1nc(-c2ccc(F)cc2)cc(N2CCN(c3ncc(CC(N)=O)cc3Cl)CC2)n1` (centres unmarked) [Example 152, 2-(5-Chloro-6-{4-[6-(4-fluoro-phenyl)-2-(2-methyl-pyrrolidin-1-yl)-pyrimidin-4-yl]-piperazin-1-yl}-pyridin-3-yl)-acetamide], the IC50 was not above 1 µM.
In the case of `Cc1cc(C(=O)O)cnc1N1CCN(c2cc(-c3ccc(F)cc3)nc(N(C)C(C)C)n2)[C@H](C)C1` [Example 153, 6-{4-[6-(4-Fluoro-phenyl)-2-(isopropyl-methyl-amino)-pyrimidin-4-yl]-3-(R)-methyl-piperazin-1-yl}-5-methyl-nicotinic acid] it was not above 1 µM; in that of `Cc1cc(C(=O)O)cnc1N1CCN(c2cc(-c3ccc(F)c(Cl)c3)nc(N3CCC[C@H]3C)n2)[C@H](C)C1` [Example 154, 6-{4-[6-(3-Chloro-4-fluoro-phenyl)-2-(2-(R)-methyl-pyrrolidin-1-yl)-pyrimidin-4-yl]-3-(R)-methyl-piperazin-1-yl}-5-methyl-nicotinic acid], not above 1 µM; in that of `C[C@@H]1CN(c2ncc(C(=O)N3CCC[C@H]3CO)cc2Cl)CCN1c1cc(-c2ccc(F)cc2)nc(N2CCC[C@H]2CO)n1` [Example 155, (5-Chloro-6-{4-[6-(4-fluoro-phenyl)-2-(2-(S)-hydroxymethyl-pyrrolidin-1-yl)-pyrimidin-4-yl]-3-(R)-methyl-piperazin-1-yl}-pyridin-3-yl)-(2-(S)-hydroxymethyl-pyrrolidin-1-yl)-methanone], not above 1 µM.
